# Results published in patent US10934253B2, “Therapeutic compounds and methods” (UNIVERSITY OF TASMANIA, priority 2017, dated 2021).
# Tests used:
# Type in all cases: cell-based
# HepG2 cells [1] = assay: Cell viability in the presence of a mitochondrial inhibitor (rotenone 10 μM); details: Homo sapiens, HepG2, 48 h, read-out: CELL VIABILITY [%]
# Protocol: (§1) Cytoprotection of HepG2 cells by naphthoquinones was quantified in the presence of the mitochondrial toxin, rotenone. Briefly, HepG2 cells were seeded in 96-well plates at 5000 cells/well in DMEM with 0.3 g/l glucose, 10% FBS and Penicillin-Streptomycin-Glutamine. After overnight incubation under standard conditions, cells were treated with the test compounds (10 μM) for 2 days before cells were challenged with 1 μM rotenone in the presence of 10 μM test compounds in Hank's balanced salt solution (HBSS) for 6 hours. This was followed by post-incubation for an additional 18 hours with only 10 μM test compounds in HBSS. For measurement of cell viability, cells were washed with 100 μL PBS twice and then lysed using 40 μL lysis solution (4 mM EDTA, 0.2% Triton X-100) for 5 min at room temperature (RT) on an orbital shaker at 200 rpm. Then 10 μL of the lysate was mixed with 90 μL of enzyme-substrate mixture (as described above) in a white 96 well plate and luminescence was measured immediately using a plate-reader (Fluoroscan Ascent, Thermo Scientific). The data is expressed as % viability compared to the untreated (no-rotenone) control.
# The cytoprotective effects of representative compounds of Formula (I) were further examined in vitro in response to rotenone toxicity at (10 μM). […] Cells were treated with the representative compounds of Formula (I) compounds (10 μM) for 2 days before cells were challenged with 10 μM rotenone.
# Vitamin K, Menadione and Idebenone were used as comparative controls.
# HepG2 cells [2] = assay: Extracellular lactate levels, enzyme-linked colorimetric assay; details: HepG2 culture medium, 25 mM glucose, supernatant after 48 h, standardized to protein
# Protocol: Lactate concentrations in culture medium were determined by an enzyme-linked colorimetric assay. Briefly, 150,000 HepG2 cells were seeded in normal growth media (DMEM, 10% FCS, Pen/Strep) in each well of a 6-well plate (Life Science, USA) and incubated for 24 h. The media was replaced with growth media containing (25 mM glucose,) with and without test compounds. Three untreated wells containing only cells were considered the experimental baseline control and all compounds were tested in three different wells simultaneously. Supernatants were collected after 48 h and transferred into 96-well format. After the addition of 90 μl of reaction buffer (10 mM KH2PO4 pH 7.8, 1 mg/ml BSA, 0.5 mM PMS, 2 mM EDTA, 0.6 mM DCPIP, 0.8 mM NAD+, 5 U/ml glutamate-pyruvate-transaminase, 1.5 mM glutamate, 12.5 U/ml lactate dehydrogenase) the plate was incubated at 30° C. inside a multimode plate reader (Multiscan Go, Thermo Scientific) and absorbance was measured at 600 nm over a period of 100 minutes. A standard curve was generated using media spiked with known lactate concentrations. Finally, protein levels were quantified and the lactate concentration of each well was standardized to its protein content and was then expressed as % of control.
# The extent of lactate reduction in the cell culture media by the test compounds of the subject invention and the Comparative Compounds vitamin K, menadione and idebenone is shown below in Table 6.
# HepG2 cells [3] = assay: Rescue of cell viability in the presence of a mitochondrial inhibitor (rotenone 1 μM); details: Homo sapiens, HepG2
# Protocol: as §1
# The extent of protection of cellular viability against a rotenone challenge of representative compounds of Formula (I) is shown below in Table 5. Vitamin K, Menadione and Idebenone were used as comparative controls. DMSO was used as a control.
# HepG2 cells [4] = assay: Acute ATP rescue assay (impaired mitochondrial function, rotenone); details: Homo sapiens, 1 h; HepG2; 1 μM quinones with rotenone 10 μM, 60 minutes, glucose-free DMEM; % ATP compared to untreated (no-rotenone) control
# Protocol: HepG2 cells were seeded at a density of 5000 cells per well in a 96-well plate and incubated for 24 hours in DMEM with 0.3 g/l glucose, 10% FBS and Penicillin-Streptomycin-Glutamine. Cells were treated with 1 μM quinones in presence or absence of rotenone (10 μM), for 60 minutes in glucose-free DMEM ATP levels were quantified using luminescence from the ATP-dependent enzymatic oxidation of luciferin by luciferase. Cells were lysed in a volume of 40 μl (4 mM EDTA, 0.2% Triton X-100) for five minutes at room temperature (RT) on an orbital shaker at 200 rpm. […] Luminescence was quantified immediately using a multimode plate reader (Fluoroscan Ascent, Thermo Scientific). ATP levels were standardized to protein levels using a commercial BCA assay (Protein DC; BioRad) and changes were calculated as percentage relative to levels of DMSO-treated control cells. Data is expressed as % ATP compared to the untreated (no-rotenone) control.
# Vitamin K, menadione and idebenone were used as comparative controls. DMSO was used as a control.
Compound,viability at 10 µM (HepG2 cells [1]) [%],Extracellular lactate [% control] (HepG2 cells [2]),viability at 10 µM (HepG2 cells [3]) [%],activity at 1 µM (HepG2 cells [4]) [%]
"COC(=O)C(Cc1ccccc1)NC(=O)CCCC1=C(C)C(=O)c2ccccc2C1=O (stereo in doubt) [UTA #35, (R)-methyl-2(4-(3-methyl-1,4-naphthoquinone-2-yl)butamido)-3-phenylpropanoate]",76.2,–,–,–
CCCCC1=C(C)C(=O)c2ccccc2C1=O [UTA #19],–,65.3,–,–
COc1ccc(CC2=C(C)C(=O)c3ccccc3C2=O)cc1OC [UTA #20],–,78.6,–,–
CCCCCCCC1=C(C)C(=O)c2ccccc2C1=O [UTA #21],–,75.6,–,–
CC1=C(CCC2CCCC2)C(=O)c2ccccc2C1=O [UTA #22],–,73,–,–
CC1=C(CCC(C)O)C(=O)c2ccccc2C1=O (centres unmarked) [UTA #24],72.8,–,–,–
"CC1=C(CCCC(=O)N2CCC[C@H]2C(=O)OC(C)(C)C)C(=O)c2ccccc2C1=O [UTA #42, (S)-tert-butyl-1-(4-(3-methyl-1,4-naphthoquinone-2-yl)butanoyl)pyrrolidine-2-carboxylate]",64.7,–,–,–
"CC1=C(CCCC(=O)N2CCC[C@H]2C(=O)O)C(=O)c2ccccc2C1=O [UTA #43, (S)-1-(4-(3-methyl-1,4-naphthoquinone-2-yl)butanoyl)pyrrolidine-2-carboxylic Acid]",92.7,–,92.7,–
CC1=C(CCCC(=O)NCC(=O)OC(C)(C)C)C(=O)c2ccccc2C1=O [UTA #47],74.4,–,–,–
CC1=C(CCCC(=O)N[C@@H](CC(C)C)C(=O)O)C(=O)c2ccccc2C1=O [UTA #54],98.7,79.1,98.7,–
CC1=C(CCCC(=O)N[C@@H](Cc2ccc(O)cc2)C(=O)OC(C)(C)C)C(=O)c2ccccc2C1=O [UTA #55],78.6,–,–,94.8
"CC1=C(CCCC(=O)N2CCC[C@H]2CO)C(=O)c2ccccc2C1=O [UTA #61, (S)-2-(4-(2-(hydroxymethyl)pyrrolidin-1-yl)-4-oxobutyl)-3-methyl-1,4-naphthoquinone]",101,–,101,–
"CC1=C(CCCC(=O)N[C@H](CO)Cc2ccccc2)C(=O)c2ccccc2C1=O [UTA #62, (S)—N-(1-hydroxy-3-phenylpropan-2-yl)-4-(3-methyl-1,4-naphthyoquinone-2-yl)butanamide]",93.1,–,93.1,91.2
CC1=C(CCC(=O)N[C@@H](Cc2ccccc2)C(=O)OC(C)(C)C)C(=O)c2ccccc2C1=O [UTA #65],60.1,–,–,91.1
CC1=C(CCC(=O)N[C@@H](Cc2ccccc2)C(=O)O)C(=O)c2ccccc2C1=O [UTA #66],66.9,66,–,–
"CC1=C(CCCCC(=O)O)C(=O)c2ccccc2C1=O [UTA #67, 25-(3-methyl-1,4-naphthoquinone-2-yl)pentanoic acid]",74.9,67.6,–,97.1
CC1=C(CCCCC(=O)N[C@@H](Cc2ccccc2)C(=O)OC(C)(C)C)C(=O)c2ccccc2C1=O [UTA #71],70.5,–,–,92.2
CC1=C(CCCCC(=O)N[C@@H](Cc2ccccc2)C(=O)O)C(=O)c2ccccc2C1=O [UTA #72],90.7,–,90.7,84.8

Compound,viability at 10 µM (HepG2 cells [1]) [%],Extracellular lactate [% control] (HepG2 cells [2]),viability at 10 µM (HepG2 cells [3]) [%],activity at 1 µM (HepG2 cells [4]) [%]
"CC1=C(CCCC(=O)NCCc2c[nH]c3ccccc23)C(=O)c2ccccc2C1=O [UTA #73, N-(2-(1H-indol-3-yl)ethyl)-4-(3-methyl-1,4-naphthoquinone-2-yl)butanamide]",86.2,–,86.2,96.1
"CC1=C(CCCC(=O)NCCc2ccc(O)cc2)C(=O)c2ccccc2C1=O [UTA #74, N-(4-hydroxyphenethyl)-4-(3-methyl-1,4-naphthoquinone-2-yl)butanamide]",91.7,–,91.7,101
CC1=C(CCCCCC(=O)N[C@@H](Cc2ccccc2)C(=O)OC(C)(C)C)C(=O)c2ccccc2C1=O [UTA #75],61.4,–,–,95.4
CC1=C(CCCCCC(=O)N[C@@H](Cc2ccccc2)C(=O)O)C(=O)c2ccccc2C1=O [UTA #76],68.1,–,–,–
CC1=C(CCCC(=O)N[C@@H](CO)Cc2ccccc2)C(=O)c2ccccc2C1=O [UTA #78],80,–,–,–
CC1=C(CCCC(=O)N[C@@H](CO)c2ccccc2)C(=O)c2ccccc2C1=O [UTA #80],87.6,–,87.6,–
CC1=C(CCCC(=O)N[C@H](CO)c2ccccc2)C(=O)c2ccccc2C1=O [UTA #81],83.8,–,83.8,–
CC1=C(CCCCCC(=O)N[C@H](CO)Cc2ccccc2)C(=O)c2ccccc2C1=O [UTA #84],74.4,–,–,90.4
CC1=C(CCCCC(=O)NCCc2ccc(O)cc2)C(=O)c2ccccc2C1=O [UTA #88],91.8,–,91.8,–
CC1=C(CCCCCC(=O)NCCc2ccc(O)cc2)C(=O)c2ccccc2C1=O [UTA #89],85.2,–,85.2,–
CCCCNC(=O)CCCC1=C(C)C(=O)c2ccccc2C1=O [UTA #91],82,–,82,–
COC(=O)[C@@H]1C[C@@H](O)CN1C(=O)CCCC1=C(C)C(=O)c2ccccc2C1=O [UTA #93],74.4,–,–,–
CC1=C(CCCC(=O)N[C@H](Cc2ccccc2)C(=O)O)C(=O)c2ccccc2C1=O [UTA #94],71.7,–,–,–
COC(=O)[C@@H](NC(=O)CCCC1=C(C)C(=O)c2ccccc2C1=O)c1ccccc1 [UTA #95],86.1,–,86.1,–
COC(=O)[C@H](NC(=O)CCCC1=C(C)C(=O)c2ccccc2C1=O)c1ccccc1 [UTA #97],84.8,–,84.8,–
O=C(CCCC1=CC(=O)c2ccccc2C1=O)NCCc1ccc(O)cc1 [UTA #113],73.4,–,–,–
O=C(CCCC1=CC(=O)c2ccccc2C1=O)N[C@H](CO)Cc1ccccc1 [UTA #115],80.8,–,80.8,–
O=C(CCCC1=CC(=O)c2ccccc2C1=O)N[C@@H](Cc1ccccc1)C(=O)O [UTA #117],80.3,–,80.3,–
